Assay [1] has as its target phosphoribosyl pyrophosphate amidotransferase (Mus musculus, UniProt Q8CIH9). Put plainly: In vitro phosphoribosyl pyrophosphate amidotransferase activity. Format: biochemical. The settings on record: read-out: ID50, Phosphoribosyl pyrophosphate amidotransferase activity. The procedure: (§1) CF1 male mice (~30 g) were implanted with 2×10^6 Ehrlich ascites tumor cells, intraperitoneally on Day 0. Compound I was suspended by homogenation in 0.05% polysorbate.80-water and administered intraperitoneally at 10 and 20 mg/kg for 9 days to determine its effectiveness for inhibition of tumor growth. Mice were sacrificed on Day 10, and the ascites fluid was collected from the peritoneal cavity. The volume and ascrit (packed cell volume) were determined for each animal and the percent inhibition of tumor growth was calculated. For the metabolic studies, mice were treated on Days 8 and 9 with 10 mg/kg of Compound I, intraperitoneally. […]
(§2) Carbamyl phosphate synthetase activity was determined using the reaction medium of Kalman et al [Am. […] Citrulline formed from ornithine was measured at 490 nm by the method of Archibald [J. Biol. Chem., 156, 121 (1944)]. […] The ^14 CO2 generated in 15 min was trapped in 1M KOH and counted. Thymidylate synthetase activity was determined using a post-mitochondrial supernatant (9000 g×10 min) and 5 μCi of 5-^3 H-deoxyuridine monophosphate (14 Ci/mmol) according to the method of Kampf et al [ J. Med. Chem., 19, 903 (1976)]. ^14 C-Formate incorporation into purines was determined by the method of Spassova et al [Biochem. Pharmacol., 25, 923 (1976)] using 0.5 μCi of ^14 C-formic acid (52.0 mCi/mmol). […] The Rf value for xanthine monophosphate was scraped and counted. […]

In another assay the target is T1, dihydrofolate reductase (Mus musculus, UniProt P00375).
T1 sequence (P00375 1-187): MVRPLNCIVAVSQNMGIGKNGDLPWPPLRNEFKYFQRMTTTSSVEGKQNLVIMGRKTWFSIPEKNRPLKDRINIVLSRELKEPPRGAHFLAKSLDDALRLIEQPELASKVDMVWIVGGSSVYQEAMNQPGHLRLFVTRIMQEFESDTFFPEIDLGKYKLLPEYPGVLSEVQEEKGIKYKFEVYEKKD
Put plainly: In vitro dihydrofolate reductase activity. Format: biochemical. The settings on record: 0.25 to 1.0 mM. The procedure: as §1, §2

Sequence of phosphoribosyl pyrophosphate amidotransferase (Q8CIH9 12-517): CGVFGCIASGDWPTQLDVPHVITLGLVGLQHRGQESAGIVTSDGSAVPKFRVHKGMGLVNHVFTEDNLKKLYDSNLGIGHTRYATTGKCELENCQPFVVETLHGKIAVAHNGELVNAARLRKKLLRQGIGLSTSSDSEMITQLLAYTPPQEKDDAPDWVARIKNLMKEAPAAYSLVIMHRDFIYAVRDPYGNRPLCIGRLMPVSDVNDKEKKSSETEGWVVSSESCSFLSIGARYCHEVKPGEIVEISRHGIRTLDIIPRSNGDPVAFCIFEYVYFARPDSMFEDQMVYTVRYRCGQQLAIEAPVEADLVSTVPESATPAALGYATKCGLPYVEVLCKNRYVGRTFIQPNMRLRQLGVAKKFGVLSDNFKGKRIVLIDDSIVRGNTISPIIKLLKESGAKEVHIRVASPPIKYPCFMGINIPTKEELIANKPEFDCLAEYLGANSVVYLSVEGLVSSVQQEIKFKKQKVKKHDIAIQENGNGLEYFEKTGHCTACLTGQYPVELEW

With “{Cu[(CH3)3 N.BH2 CO2 ]2.(CH3)3 N.BH2 COOH} [Compound I]”, the IC50 in assay [1] is 523 µM. The dihydrofolate reductase inhibition result at dihydrofolate reductase is listed as “not inhibited”.

Source of the values: US4550186A, “Binuclear copper (II) carboxylates formed from amine-carboxyboranes” (Duke University, priority 1983, dated 1985).
